From US8993523B2, “Dimeric IAP inhibitors” (Novartis AG, priority 2010, dated 2015) come the findings set out here.

Molecules are shown by their SMILES. Some results are limits rather than exact numbers.

In one test the test system is Panc3.27 tumor cells. Put plainly: Cellular assay: Panc3.27 tumor cell proliferation (Cell Titer Glo). The test is classed as cell-based. Conditions: Panc3.27 cells, 72 hour treatment, read-out: PANC proliferation IC50. Here is the method: Cellular Assay—Treatment of Panc3.27 Tumor Cells with Dimeric IAP Antagonists
On day one adherent Panc3.27 cells are plated into two 96-well, clear, flat bottom plates. All wells in row A contain 90 uL of media. All wells in rows B-G contain a total volume of 90 uL per well and 4000 cells per well for Panc3.27 cell lines. Plates are then incubated overnight for 18 hours at 37° C., 5% CO2.
On day two cells are treated with the compounds of formula M-L-M′. Treatments are done in triplicate. The compounds are first serially diluted in DMSO and then added to media giving a final concentration of 0.2% DMSO when added to cells. Cells are treated with 10 uL of serially diluted compounds of formula M-L-M′ at a final concentration of 1000 nM, 200 nM, 40 nM, 8 nM, 1.6 nM, 0.32 nM, 0.06 nM, 0.013 nM, 0.0026 nM, and one untreated well. Plate two is used as a time zero plate.
To measure cell viability 50 uL of Cell Titer Glo (CTG) solution is added to row A, media only and B, cells and media. CTG is purchased from Promega Corporation catalog number G7573. The solution is prepared according to manufacturer's instructions. CTG measures the amount of ATP released from viable cells that is proportional to the number of cells in each well. After incubating for ten minutes with CTG plates are measured on a luminescent reader at 700 nm wavelength. Read time is approximately one second per well for a 96-well plate.
On day five 50 uL of CTG is added to plate one, rows A-G, incubated for 10 minutes at room temperature and read on a luminescent reader. Raw data is adjusted to account for the time zero plate as well as background noise. Triplicate values are averaged and percent control growth is calculated. Percent control growth is calculated using the following logical test: If well read data point (a) is greater than time zero data point (t=0), then 100*[(a)−(t=0)]/[(72 hour total growth)−(t=0)], OR 100*[(a)−(t=0)]/[(t=0)]. Data is represented by line graph with the concentration of compound on the x axis and percent control growth on the y axis.
(In general: Cellular ATP, detected with luciferase, serves as a proxy for viable cell number.)

The target in another test is T1, XIAP-BIR3 (Homo sapiens, UniProt P98170).
T1 construct: with either 100 nM XIAP-BIR3 or 6 nM cIAP1-BIR3
T1 sequence (P98170 241-356 limits assumed): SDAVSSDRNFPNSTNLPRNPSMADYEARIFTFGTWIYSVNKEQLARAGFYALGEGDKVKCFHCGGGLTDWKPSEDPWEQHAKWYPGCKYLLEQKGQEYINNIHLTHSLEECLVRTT
Put plainly: Biacore SPR solution inhibition (competition with smac7mer peptide) binding assay, XIAP-BIR3. Conditions: 100 nM XIAP-BIR3, competition with immobilised smac7mer peptide, 25° C.; read-out: XIAP-BIR3 Binding Biacore (Competitive) EC50. From the text: (§1) The present method includes utility of a Surface plasmon resonance (SPR)-based biosensor (Biacore™ GE Healthcare, Uppsala, Sweden) to examine competition between the compounds of the present invention and smac7mer peptide for XIAP-BIR3 and cIAP1-BIR3 binding groove occupancy.
(§2) Biacore™ utilizes the phenomenon of surface plasmon resonance (SPR) to detect and measure binding interactions. In a typical Biacore experiment, one of the interacting molecules is immobilized on a flexible dextran matrix while the interacting partner is flowed over the derivatized surface. A binding interaction results in an increase in mass on the sensor surface and a corresponding direct change in the refractive index of the medium in the vicinity of the sensor surface. Changes in refractive index or signal are recorded in resonance units (R.U.) Signal changes due to association and dissociation of complexes are monitored in a non-invasive manner, continuously and in real-time, the results of which are reported in the form of a sensorgram.
(§3) Solution Inhibition Assay Format:
(§4) Biacore™ T100 (GE Healthcare, Uppsala, Sweden) was used to conduct all experiments reported herein. Sensor surface preparation and interaction analyses were performed at 25° C. Buffer and Biacore reagents were purchased from GE Healthcare. Running buffer containing 10 mM Hepes, pH7.4, 150 mM sodium chloride, 1.25 mM Dithiothreitol, 2% Dimethyl sulfoxide and 0.05% polysorbate 20 was utilized throughout all experiments.
(§5) Biotinylated smac7mer peptide was diluted to 10 nM in running buffer and captured onto a sensor surface pre-derivatized with streptavidin (sensor chip SA) towards peptide surface densities in the range 40-100 R.U. Peptide captured surfaces were blocked with 500 μM PEO2-Biotin (Thermo Scientific).
(§6) Interaction analyses were performed by first equilibrating each compound within a six point seven fold compound dilution series in the range 1 μM to 0.06 nM with either 100 nM XIAP-BIR3 or 6 nM cIAP1-BIR3 for at least one hour during instrument start-up procedures. Protein compound mixtures were then injected over reference and smac7mer peptide surfaces in series for 60 seconds at a flow-rate of 60 μL/min. Surface regeneration was performed at the end of each analysis cycle by a 30 second injection of 10 mM Glycine, pH 2.5, 1M Sodium Chloride, 0.05% polysorbate 20. Additionally, control compound samples and control XIAP-BIR3 or cIAP1-BIR3 samples were prepared and run at regular intervals to monitor surface and assay performance.
(§7) Data analyses were carried out using Biacore™ T100 evaluation software v2.0 to validate assay quality. Binding level report points were plotted versus logarithmic compound concentration values and analyzed in Graphpad prism 5 via non-linear regression using a one-site competition model. EC50 values were generated and used as a measure of inhibitor potency.

The target of another test is T2, cIAP1-BIR3 (Homo sapiens, UniProt Q13490).
T2 construct: with either 100 nM XIAP-BIR3 or 6 nM cIAP1-BIR3
T2 sequence (Q13490 260-352 limits assumed): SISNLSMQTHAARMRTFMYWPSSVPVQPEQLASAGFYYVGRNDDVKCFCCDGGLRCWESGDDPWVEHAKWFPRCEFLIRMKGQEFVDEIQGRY
Put plainly: Biacore SPR solution inhibition (competition with smac7mer peptide) binding assay, cIAP1-BIR3. The note with it: 6 nM cIAP1-BIR3, competition with immobilised smac7mer peptide, 25° C.; read-out: CIAP-BIR3 Binding Biacore (Competitive) EC50.
Excerpt: as §1, §2, §3, §4, §5, §6, §7
(In general: SPR reads the build-up and loss of mass on a sensor chip optically.)

Usually EC50 stands for the concentration at which the effect is half-maximal. For the compound `CN[C@@H](C)C(=O)N[C@H](C(=O)N1CCC[C@H]1c1cncc(-n2cc(C(=O)NCCCOCCOCCOCCOCCOCCCNC(=O)c3cn(-c4cncc([C@@H]5CCCN5C(=O)[C@@H](NC(=O)[C@H](C)NC)C(C)C)c4)c4ccccc34)c3ccccc32)c1)C(C)C` [Example 2B, (S,S,S)—N,N′-(4,7,10,13,16-pentaoxanonadecane-1,19-diyl)bis(1-(5-((S)-1-((S)-3-methyl-2-((S)-2-(methylamino)propanamido)butanoyl)pyrrolidin-2-yl)pyridin-3-yl)-1H-indole-3-carboxamide)], the IC50 in the test on Panc3.27 tumor cells lay in the range of 0.02 to 0.21 nM. Also, the EC50 on XIAP-BIR3 was in the range of 51.2 to 59.4 nM; on cIAP1-BIR3 it was 0.51 to 1.04 nM.
The like results for `[2H]C([2H])([2H])N[C@@H](C)C(=O)N[C@H](C(=O)N1CCC[C@H]1c1cncc(-n2ccc3c(C(=O)NCCCOCCOCCCNC(=O)c4cccc5c4ccn5-c4cncc([C@@H]5CCCN5C(=O)[C@@H](NC(=O)[C@H](C)NC([2H])([2H])[2H])C(C)C)c4)cccc32)c1)C(C)C` [Example 3A, (S,S,S)—N,N′-(3,3′-(ethane-1,2-diylbis(oxy))bis(propane-3,1-diyl))bis(1-(5-((S)-1-((S)-3-methyl-2-((S)-2-(trideuteromethylamino)propanamido)butanoyl)-pyrrolidin-2-yl)pyridin-3-yl)-1H-indole-4-carboxamide)] were, in that order, 0.12 to 0.17 nM, 44.7 nM and 0.59 nM.
As to `CN[C@@H](C)C(=O)N[C@H](C(=O)N1CCC[C@H]1c1cncc(-n2cc(C(=O)NCCCOCCOCCOCCCNC(=O)c3cn(-c4cncc([C@@H]5CCCN5C(=O)[C@@H](NC(=O)[C@H](C)NC)C(C)C)c4)c4ccccc34)c3ccccc32)c1)C(C)C` [Example 2C, (S,S,S)—N,N′-(3,3′-(2,2′-oxybis(ethane-2,1-diyl)bis(oxy))bis(propane-3,1-diyl))bis(1-(5-((S)-1-((S)-3-methyl-2-((S)-2-(methylamino)propanamido)-butanoyl)pyrrolidin-2-yl)pyridin-3-yl)-1H-indole-3-carboxamide)], the IC50 with Panc3.27 tumor cells was in the range of 0.1 to 0.27 nM. The EC50 was in the range of 42 to 79.9 nM on XIAP-BIR3 and 0.97 to 0.98 nM at cIAP1-BIR3.
In the case of `CN[C@@H](C)C(=O)N[C@H](C(=O)N1CCC[C@H]1c1cncc(-n2cc(C(=O)N3CCN(C(=O)c4cn(-c5cncc([C@@H]6CCCN6C(=O)[C@@H](NC(=O)[C@H](C)NC)C(C)C)c5)c5ccccc45)CC3)c3ccccc32)c1)C(C)C` [Example 2O, (2S,2′S)—N,N′-((2S,2′S)-1,1′-((2S,2′S)-2,2′-(5,5′-(3,3′-(piperazine-1,4-diylbis(oxomethylene))bis(1H-indole-3,1-diyl))bis(pyridine-5,3-diyl))bis(pyrrolidine-2,1-diyl))bis(3-methyl-1-oxobutane-2,1-diyl))bis(2-(methylamino)propanamide)], the IC50 in the test on Panc3.27 tumor cells lay in the range of 0.54 to 1.37 nM. Further, the EC50 at XIAP-BIR3 is 39 nM; on cIAP1-BIR3, 2.17 to 2.18 nM.
Turning to `CN[C@@H](C)C(=O)N[C@H](C(=O)N1CCC[C@H]1c1cncc(-n2cc(C(=O)NCc3ccc(CNC(=O)c4cn(-c5cncc([C@@H]6CCCN6C(=O)[C@@H](NC(=O)[C@H](C)NC)C(C)C)c5)c5ccccc45)cc3)c3ccccc32)c1)C(C)C` [Example 2P, (S,S,S)—N,N′-(1,4-phenylenebis(methylene))bis(1-(5-((S)-1-((S)-3-methyl-2-((S)-2-(methylamino)propanamido)butanoyl)pyrrolidin-2-yl)pyridin-3-yl)-1H-indole-3-carboxamide)], in the test with Panc3.27 tumor cells, the IC50 was less than 0.0026 nM. Further, the EC50 on XIAP-BIR3 is 70.9 to 71 nM; on cIAP1-BIR3, 1.21 to 1.23 nM.
As to `CN[C@@H](C)C(=O)N[C@H](C(=O)N1CCC[C@H]1c1cncc(-n2ccc3c(C(=O)N[C@H]4CCCC[C@@H]4NC(=O)c4cccc5c4ccn5-c4cncc([C@@H]5CCCN5C(=O)[C@@H](NC(=O)[C@H](C)NC)C(C)C)c4)cccc32)c1)C(C)C` [Example 1D, (S,S,S)—N,N′-((1S,2S)-cyclohexane-1,2-diyl)bis(1-(5-((S)-1-((S)-3-methyl-2-((S)-2-(methylamino)propanamido)butanoyl)pyrrolidin-2-yl)pyridin-3-yl)-1H-indole-4-carboxamide)], the IC50 in the test on Panc3.27 tumor cells lay in the range of 2.61 to 2.75 nM. Further, the concentration giving a half-maximal response (EC50) was 76 to 76.7 nM on XIAP-BIR3 and 1.2 to 1.22 nM on cIAP1-BIR3.
In the case of `CN[C@@H](C)C(=O)N[C@H](C(=O)N1CCC[C@H]1c1cncc(-n2cc(C(=O)N3CC4(C3)CN(C(=O)c3cn(-c5cncc([C@@H]6CCCN6C(=O)[C@@H](NC(=O)[C@H](C)NC)C(C)C)c5)c5ccccc35)C4)c3ccccc32)c1)C(C)C` [Example 2N, (2S,2′S)—N,N′-((2S,2′S)-1,1′-((2S,2′S)-2,2′-(5,5′-(3,3′-(2,6-diazaspiro[3.3]heptane-2,6-diylbis(oxomethylene))bis(1H-indole-3,1-diyl))bis(pyridine-5,3-diyl))bis(pyrrolidine-2,1-diyl))bis(3-methyyl-1-oxobutane-2,1-diyl))bis(2-(methylamino)propanamide)], the IC50 with Panc3.27 tumor cells was 7.04 to 8.37 nM. In addition, the EC50 at XIAP-BIR3 was 32.6 to 33.3 nM; on cIAP1-BIR3, 0.57 to 0.68 nM.
As for `CN[C@@H](C)C(=O)N[C@H](C(=O)N1CCC[C@H]1c1cncc(-n2cc(C(=O)NCCCOCCCNC(=O)c3cn(-c4cncc([C@@H]5CCCN5C(=O)[C@@H](NC(=O)[C@H](C)NC)C(C)C)c4)c4ccccc34)c3ccccc32)c1)C(C)C` [Example 2I], the IC50 with Panc3.27 tumor cells fell in the range of 0.18 to 1.21 nM. Besides, the EC50 was in the range of 19.7 to 20.8 nM at XIAP-BIR3 and 0.5 to 0.51 nM at cIAP1-BIR3.
Turning to `CN[C@@H](C)C(=O)N[C@H](C(=O)N1CCC[C@H]1c1cncc(-n2cc(C(=O)NCc3ccc(-c4ccc(CNC(=O)c5cn(-c6cncc([C@@H]7CCCN7C(=O)[C@@H](NC(=O)[C@H](C)NC)C(C)C)c6)c6ccccc56)cc4)cc3)c3ccccc32)c1)C(C)C` [Example 2G, (S,S,S)—N,N′-(biphenyl-4,4′-diylbis(methylene))bis(1-(5-((S)-1-((S)-3-methyl-2-((S)-2-(methylamino)propanamido)butanoyl)pyrrolidin-2-yl)pyridin-3-yl)-1H-indole-3-carboxamide)], the IC50 in the test on Panc3.27 tumor cells is less than 0.0026 nM. The results for the 50% effective concentration (EC50) at XIAP-BIR3 and on cIAP1-BIR3 were 47.9 to 51.6 nM and 2.24 to 2.27 nM, respectively.
Turning to `CN[C@@H](C)C(=O)N[C@H](C(=O)N1CCC[C@H]1c1cncc(-n2cc(C(=O)N[C@H]3CC[C@H](NC(=O)c4cn(-c5cncc([C@@H]6CCCN6C(=O)[C@@H](NC(=O)[C@H](C)NC)C(C)C)c5)c5ccccc45)CC3)c3ccccc32)c1)C(C)C` [Example 2M, 1-(5-((S)-1-((S)-3-methyl-2-((S)-2-(methylamino)propanamido)-butanoyl)pyrrolidin-2-yl)pyridin-3-yl)-N-((1S,4S)-4-(1-(5-((S)-1-((S)-3-methyl-2-((S)-2-(methylamino)propanamido)butanoyl)pyrrolidin-2-yl)pyridin-3-yl)-1H-indole-3-carboxamido)cyclohexyl)-1H-indole-3-carboxamide], the IC50 in the test with Panc3.27 tumor cells is less than 0.0026 nM. For the same compound, the values for the 50% effective concentration (EC50) on XIAP-BIR3 and on cIAP1-BIR3 were 26.1 to 26.4 nM and 0.7 to 0.71 nM, respectively.
